This is an account of results in paper PMC6906431, “Selective small molecule PARG inhibitor causes replication fork stalling and cancer cell death” (Nature Communications, 2019).

In one experiment the test system is A172 glioblastoma cells. In words: Sulforhodamine B (SRB) cytotoxicity assay. The settings on record: 72 h. The protocol: Normalized % viabilities are plotted against log concentration. Error bars show the percent coefficient of variation. […] Mann-Whitney test was used to generate the p-value. The DNA spread assay is the representation of two independently repeated experiments. Source Data are provided as a Source Data file.
Cells were plated in 96-well plates, treated as designated in reduced 5% FBS and fixed with trichloroacetic acid after 72 h, as previously described by[43]. […] Colorimetric or fluorescence analysis was performed in a FlexStation 3, using SoftMax Pro 7.0, Molecular Devices. Normalized graphs were generated with Prism 8 software, non-linear 4-parameter data fitting was performed for IC50 calculation.
A general note: Sulforhodamine B stains cellular protein and so reports cell mass.

The target of a further experiment is T1, rat PARG (Rattus norvegicus, UniProt Q9QYM2).
T1 construct: The catalytic domain of rat PARG (residues 385–972) was purified as described previously; made in house
T1 sequence (Q9QYM2 385-972): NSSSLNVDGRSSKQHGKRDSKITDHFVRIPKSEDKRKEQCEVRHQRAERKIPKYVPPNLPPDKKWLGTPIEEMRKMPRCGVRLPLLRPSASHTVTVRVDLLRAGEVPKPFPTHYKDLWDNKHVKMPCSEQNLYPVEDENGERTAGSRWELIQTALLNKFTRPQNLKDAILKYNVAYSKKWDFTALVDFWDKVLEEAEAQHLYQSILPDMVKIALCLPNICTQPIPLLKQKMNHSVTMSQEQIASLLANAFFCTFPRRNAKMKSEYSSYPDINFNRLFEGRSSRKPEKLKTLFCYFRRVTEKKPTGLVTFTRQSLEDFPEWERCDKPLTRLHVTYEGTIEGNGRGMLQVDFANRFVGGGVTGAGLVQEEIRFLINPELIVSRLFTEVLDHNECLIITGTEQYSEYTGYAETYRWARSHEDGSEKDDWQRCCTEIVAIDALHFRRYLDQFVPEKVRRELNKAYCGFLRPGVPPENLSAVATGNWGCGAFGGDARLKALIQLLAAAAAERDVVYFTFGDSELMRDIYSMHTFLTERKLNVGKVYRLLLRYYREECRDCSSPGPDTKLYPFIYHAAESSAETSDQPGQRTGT
The experiment in a line: TR-FRET PAR turnover assay (HTS and dose-response). In kind it is biochemical. As to conditions: for IC50: dose-response, rat PARG 12.5 nM, read-out: Estimated IC50; for TR-FRET: 6.7 μM compound. An excerpt: Importantly, PARG enzymatic function can be required for tumorigenesis. Therefore, we sought to identify a selective PARG inhibitor through our robust PARG enzyme kinetic assay, which quantitatively monitors real-time PAR-mediated PARP1-XRCC1 interactions and disassembly in a multi-well format. A strong TR-FRET signal was generated upon assembly of the Tb^3+-chelated XRCC1 (FRET donor) with PARylated PARP1, which incorporates fluorescein-labeled ADP-ribose moieties into PAR chains (FRET acceptor). The addition of PARG caused a time-dependent loss of the TR-FRET signal by reversing PARylation and disassembling the PARP1-XRCC1 complex (Supplementary Fig. 1)[37].
For a high-throughput screening (HTS) of PARG inhibitors, we developed a high-throughput PARG activity assay using the TR-FRET system (a manuscript describing the details of this assay will be published elsewhere). Briefly, the fluorescein molecule (FITC) was enzymatically incorporated into PARP1 in a reaction containing PARP1C (2 μM), the PARP1 DBD (2 μM), a 24 mer nicked DNA oligo (2 μM), and a mixture of unlabeled NAD^+ (Sigma) and FITC-NAD^+ (Trevigen) substrates (total NAD^+ concentration of 100 μM). After incubation for 1 h at 37 °C, PARylated PARP1 was desalted using a PD-10 desalting column (GE healthcare) in a buffer containing 25 mM Tris-HCl (pH 7.5), 50 mM NaCl, and 0.01% NP-40 and used as the FRET acceptor. The biotin-tagged BRCT1 domain of XRCC1 (BRCT1, 5 nM) was conjugated with an equimolar concentration of Tb^3+-chelated streptavidin (Life Technologies) in TR-FRET assay buffer (FRET donor). […] The reaction was started by the addition of the FRET pair of FITC-labeled PARP1 (42 nM) and Tb^3+-BRCT1 (5 nM). The TR-FRET signal was subsequently monitored for 60 min.
Small molecule inhibitors of PARG were identified by high-throughput screening (HTS) using the TR-FRET PAR turnover assay. Compounds (final concentration of 6.7 μM) from the NCI Diversity Set II library (1990 compounds) were pre dispensed into black polystyrene 384-well plates (Corning) using a Hummingbird liquid handler (Digilab). Then, 10 μl of rat PARG^385–972 (12.5 nM and 25 nM) were subsequently dispensed into plates, using a multi-drop combi nL reagent dispenser (Thermo Scientific) and incubated with compounds for 1 h at 4 °C. The reaction was initiated by the addition of 20 μl of the premixed FRET pair of FITC-labeled PARP1 (42 nM) and Tb^3+-BRCT1 (5 nM), and the TR-FRET signal was monitored every 4 min for 40 min (11 data points). Hits were selected by visually comparing the rate of the TR-FRET signal decrease in each well to that of negative control reactions containing DMSO (Fig. 1b and see Text for details). The HTS was performed at the High-Throughput Screening Core (HTSC) at Washington University School of Medicine.

The target in another experiment is T2, Human PARG (Homo sapiens, UniProt Q86W56).
T2 construct: The human PARG (hPARG) catalytic domain (residues 389–976) was cloned in pET28a (Novagen); His-tag (N); made in house; host or cells: E. coli Rosetta
T2 sequence (Q86W56 389-976): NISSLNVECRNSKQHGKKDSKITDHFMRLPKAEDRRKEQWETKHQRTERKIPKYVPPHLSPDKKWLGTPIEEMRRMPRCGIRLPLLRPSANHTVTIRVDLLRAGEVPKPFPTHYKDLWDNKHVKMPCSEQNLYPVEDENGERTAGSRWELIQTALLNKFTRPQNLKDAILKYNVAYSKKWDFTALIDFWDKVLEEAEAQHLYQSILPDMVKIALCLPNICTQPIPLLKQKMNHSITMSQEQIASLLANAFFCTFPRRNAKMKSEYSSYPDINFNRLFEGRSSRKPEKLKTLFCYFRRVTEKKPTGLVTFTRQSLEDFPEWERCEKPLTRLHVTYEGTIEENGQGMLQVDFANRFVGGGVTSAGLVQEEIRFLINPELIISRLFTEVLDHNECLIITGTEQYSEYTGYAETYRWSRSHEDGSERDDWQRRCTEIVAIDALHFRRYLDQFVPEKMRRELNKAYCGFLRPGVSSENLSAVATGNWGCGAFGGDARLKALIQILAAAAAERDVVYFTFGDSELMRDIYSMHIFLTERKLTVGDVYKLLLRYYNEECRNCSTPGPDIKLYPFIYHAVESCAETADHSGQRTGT
The experiment in a line: Gel-based PARG activity assay. In kind it is biochemical. The settings on record: for IC50: hPARG 1 nM, PARylated PARP1C 500 nM, 30 min; for inhibition at 0.0488281 µM: [L] 0.0488281 uM; for inhibition at 0.0976562 µM: [L] 0.0976562 uM; for inhibition at 0.195312 µM: [L] 0.195312 uM; for inhibition at 0.390625 µM: [L] 0.390625 uM; for inhibition at 0.78125 µM: [L] 0.78125 uM; for inhibition at 1.5625 µM: [L] 1.5625 uM; for inhibition at 3.125 µM: [L] 3.125 uM; for inhibition at 6.25 µM: [L] 6.25 uM; for inhibition at 12.5 µM: [L] 12.5 uM; for inhibition at 25 µM: [L] 25 uM; for inhibition at 50 µM: [L] 50 uM. The protocol: PARP1C (2 μM) is enzymatically auto-modified in a reaction containing the PARP1 DBD (2 μM), a 24 mer nicked DNA oligo (2 μM), and NAD^+ (300 μM) for 1 h at 37 °C, as described previously. Human PARG^389–976 (1 nM) was pre-incubated with compounds for 1 h at room temperature. The reaction was initiated by the addition of PARylated PARP1 (final concentration of 500 nM) and quenched after 30 min incubation at room temperature by adding SDS-PAGE sample buffer. The gel was visualized by sypro-ruby staining[18] and the retained PARylated PARP1C species were quantified using ImageJ[59]. PARylated PARP1C that migrates slower than unmodified PARP1C was quantified. […] The IC50 values were determined by fitting the dose-response data for each compound to a four-parameter logistic equation using SigmaPlot (Systat Software Inc.).
To test the specificity of JA2131, human PARG^389–976 (1 nM) was pre-incubated with JA2131 (5, 10, and 20 μM) in the presence and absence of 0.1% Triton-X 100 or 0.1 mg/ml BSA for 1 h at room temperature. The reaction was initiated, quenched, visualized, and quantified as described above. […]
PARG activity assay. […]
PARP1 (500 nM). The reaction was quenched after a 30 -minu te in cu ba tion a t roo m te mpe ra tu re by adding SDS-PA GE sa mp le bu f fe r. PARylated PARP1C runs as a smear on SDS -PAGE that is reduced to a single band by PARG treatment. […]
2). (b) Qu an t if ica t ion o f the dose-response PARG inhibition by JA2 -3 using the gel-based PARG activity assay. hPARG (1 nM) was preincubated with increasing concentrations (0.032 – 1 µM) of JA2-3 f o r 1 hour at room temperature before PARylated PARP1C (500 nM) was added. The reaction was quenched after a 30-minu te incubation at room temperature. PARylated PARP1C migrates slower than unmodified PARP1C and was quantified using ImageJ. […] The rate of the PARG-dependent signal loss in the TR-FRET PAR turnover assay is not equivalent to the steady-state rate of PAR turnover, because the TR-FRET assay can’t detect signal loss until the length of PAR chains become shorter than 7 ADP-ribose units. Therefore, we used the gel-based PARG activity assay to accurately determine the IC50 values throughout the manuscript .

By IC50 is commonly meant the concentration that gives 50% inhibition. For the compound `NC(=O)NO` [Hydroxyurea], the concentration for half-maximal inhibition (IC50) with A172 glioblastoma cells was determined as 381 ± 117 µM.

With `CCCOCN1C(=O)C=CC1=O` [JA1-1], the IC50 at rat PARG was 1 to 2 µM.

In the case of `O=C1C=CC(=Nc2cccc3c(N=C4C=CC(=O)O4)cccc23)O1` [JA1-3], on rat PARG, the concentration for half-maximal inhibition (IC50) is roughly 0.4 µM.

In general, inhibition refers to the drop in the measured response relative to a control, in per cent. As to `O=c1[nH]c2[nH]c(=S)[nH]c(=S)c2[nH]1` [JA2-3], the TR-FRET on rat PARG (12.5 nM PARG, 0 min) stood at 1.1077; at rat PARG (12.5 nM PARG, 4 min) it was 1.1706; on rat PARG (12.5 nM PARG, 8 min), 1.1753; at rat PARG (12.5 nM PARG, 12 min), 1.0984; at rat PARG (12.5 nM PARG, 16 min), 1.1414; on rat PARG (12.5 nM PARG, 20 min), 1.0328. Moreover, the TR-FRET at rat PARG (12.5 nM PARG, 24 min) was 0.9368; at rat PARG (12.5 nM PARG, 28 min) it was 0.9375; at rat PARG (12.5 nM PARG, 32 min) it was 0.9636; on rat PARG (12.5 nM PARG, 36 min), 0.9240; on rat PARG (12.5 nM PARG, 40 min) it was 0.9660; at rat PARG (25 nM PARG, 0 min) it was 1.1716. The TR-FRET at rat PARG (25 nM PARG, 4 min) is recorded as 1.2418; at rat PARG (25 nM PARG, 8 min), 1.1876; on rat PARG (25 nM PARG, 12 min), 1.1061; at rat PARG (25 nM PARG, 16 min), 1.0537; at rat PARG (25 nM PARG, 20 min), 1.0170; at rat PARG (25 nM PARG, 24 min) it was 0.9403. Further, the TR-FRET at rat PARG (25 nM PARG, 28 min) was 0.9903; at rat PARG (25 nM PARG, 32 min), 1.0366; at rat PARG (25 nM PARG, 36 min), 0.9358; on rat PARG (25 nM PARG, 40 min), 1.0455. At Human PARG (0.5 h, [L] 1.00E-04 uM), the inhibition at 0.0001 µM amounted to 0%. Moreover, at Human PARG ([L] 0.03125 uM), the inhibition at 0.03125 µM turned out to be 17%. The inhibition at 0.0625 µM against Human PARG ([L] 0.0625 uM) came out at 35.9%. Further, the inhibition at 0.125 µM against Human PARG ([L] 0.125 uM) was 56.7%. The inhibition at 0.25 µM at Human PARG ([L] 0.25 uM) came out at 74.4%. For the same compound, on Human PARG ([L] 0.5 uM), the inhibition at 0.5 µM is 88%. For the same compound, at Human PARG ([L] 1 uM), the inhibition at 1 µM worked out at 103%. Further, the IC50 on Human PARG was 0.1 µM.

With `Cn1c(=S)c2nc(SCCN3CCCC3)[nH]c2n(C)c1=O` [JA2-4], at Human PARG, the inhibition at 0.0488281 µM was determined as 2.01%, the inhibition at 0.0976562 µM amounted to 4.3%, the inhibition at 0.195312 µM was found to be 25.2% and the inhibition at 0.390625 µM worked out at 34.9%. Besides, on Human PARG, the inhibition at 0.78125 µM turned out to be 48.4%, the inhibition at 1.5625 µM was 67%, the inhibition at 3.125 µM is 70.1% and the inhibition at 6.25 µM came out at 78.4%. Besides, at Human PARG, the inhibition at 12.5 µM turned out to be 87.5%, the inhibition at 25 µM came out at 93.6%, the inhibition at 50 µM was found to be 100% and 0.9 µM corresponded to half-maximal inhibition (IC50).

Regarding `Cn1c(=O)c2[nH]c(SCCN3CCOCC3)nc2n(C)c1=S` [JA2-5], at Human PARG, the inhibition at 0.0488281 µM is 6.3%, the inhibition at 0.0976562 µM worked out at 19.6%, the inhibition at 0.195312 µM stood at 28.3% and the inhibition at 0.390625 µM is 27.3%. For the same compound, at Human PARG, the inhibition at 0.78125 µM is 35.2%, the inhibition at 1.5625 µM came out at 71%, the inhibition at 3.125 µM is 81.9% and the inhibition at 6.25 µM is 87.9%. Also, on Human PARG, the inhibition at 12.5 µM was 89.1%, the inhibition at 25 µM is 99.8%, the inhibition at 50 µM was 104% and the IC50 was 1 µM.

In the case of `Cn1c(=O)c2[nH]c(SCCN3CCOCC3)nc2n(C)c1=O` [JA2120], on Human PARG, the “potency difference JA2131 (6´-thiocarbonyl) vs JA2120 (6´-carbonyl)” value was “more than 50 fold”, the inhibition at 0.0488281 µM amounted to 6.05%, the inhibition at 0.0976562 µM is 5.87% and the inhibition at 0.195312 µM came out at 7.21%. Moreover, at Human PARG, the inhibition at 0.390625 µM worked out at 10.4%, the inhibition at 0.78125 µM turned out to be 16.2%, the inhibition at 1.5625 µM was found to be 24.6% and the inhibition at 3.125 µM came out at 25.7%. On Human PARG, the inhibition at 6.25 µM was 24.7%, the inhibition at 12.5 µM was found to be 33.9%, the inhibition at 25 µM stood at 45.5% and the inhibition at 50 µM stood at 67%. At Human PARG, the IC50 was found to be 25.7 µM. Moreover, on Human PARG ([L] 100 uM), the inhibition at 100 µM turned out to be 88.3%.
